We go through eight compounds from BindingDB's records for doi:10.1016/s0960-894x(98)00730-6 (University At Stony Brook, 1999).

Where a SMILES comes first, the peptide text is derived from it. [ ]: non-standard residue; d: D form. The star is where a group is joined. Biotinyl(3aR,4R,6aS) = O=C1N[C@@H]2[C@@H](CS[C@@H]2CCCCC(=O)*)N1; Phe(4-guanidino) = N=C(N)Nc1ccc(C[C@H](N)C(=O)O)cc1; Bpa = N[C@@H](Cc1ccc(C(=O)c2ccccc2)cc1)C(=O)O; X3 = O=C1N[C@@H]2CSC(CCCCC(=O)*)[C@@H]2N1; Phe(4-F) = N[C@@H](Cc1ccc(F)cc1)C(=O)O; X4 = O=C(c1ccccc1)c1ccc(CCC(=O)*)cc1; Orn = NCCC[C@H](N)C(=O)O; X1 = O=C(C=Cc1ccccc1)*; Propionyl = CCC(=O)*

This experiment in a line: Human Thrombin receptor 1 (PAR-1) antagonistic ability to inhibit SFLLRN-NH2 (2.7 uM)-induced platelet aggregation.

Broadly, the IC50 is the midpoint of a concentration-inhibition curve. The low end stands for inhibition by little substance, the high end for a need for much substance. `N=C(N)NCCC[C@H](NC(=O)[C@H](Cc1ccc(C(=O)c2ccccc2)cc1)NC(=O)[C@H](Cc1ccc(N=C(N)N)cc1)NC(=O)[C@H](Cc1ccc(F)cc1)NC(=O)C=Cc1ccccc1)C(=O)N[C@@H](CCCNC(=O)CCCC[C@H]1SC[C@H]2NC(=O)N[C@H]21)C(=O)O` [(2S)-5-{5-[(3aR,4R,6aS)-2-oxo-hexahydro-1H-thieno[3,4-d]imidazolidin-4-yl]pentanamido}-2-[(2S)-2-[(2S)-3-(4-benzoylphenyl)-2-[(2S)-3-(4-carbamimidamidophenyl)-2-[(2S)-3-(4-fluorophenyl)-2-[(2E)-3-phenylprop-2-enamido]propanamido]propanamido]propanamido]-5-carbamimidamidopentanamido]pentanoic acid] (X1-[Phe(4-F)][Phe(4-guanidino)][Bpa]R[Orn](Biotinyl(3aR,4R,6aS))-OH) showed an IC50 of 3.4 µM. This lies in the single-digit micromolar range.
For `CC(C)C[C@H](NC(=O)[C@H](Cc1ccc(N=C(N)N)cc1)NC(=O)[C@H](Cc1ccc(F)cc1)NC(=O)C=Cc1ccccc1)C(=O)N[C@@H](Cc1ccc(C(=O)c2ccccc2)cc1)C(=O)N[C@@H](CCCNC(=O)CCCCC1SC[C@H]2NC(=O)N[C@@H]12)C(=O)O` (stereo partly drawn) [(2S)-5-{5-[(3aR,6aS)-2-oxo-hexahydro-1H-thieno[3,4-d]imidazolidin-4-yl]pentanamido}-2-[(2S)-3-(4-benzoylphenyl)-2-[(2S)-2-[(2S)-3-(4-carbamimidamidophenyl)-2-[(2S)-3-(4-fluorophenyl)-2-[(2E)-3-phenylprop-2-enamido]propanamido]propanamido]-4-methylpentanamido]propanamido]pentanoic acid] (X1-[Phe(4-F)][Phe(4-guanidino)]L[Bpa][Orn](X3)-OH), it took 9.7 µM to reach half-maximal inhibition (IC50). Against the preceding compound, the IC50 is about 2.9-fold higher.
`CCC(=O)NCCC[C@H](NC(=O)[C@H](CCCNC(=N)N)NC(=O)[C@H](Cc1ccc(C(=O)c2ccccc2)cc1)NC(=O)[C@H](Cc1ccc(N=C(N)N)cc1)NC(=O)[C@H](Cc1ccc(F)cc1)NC(=O)C=Cc1ccccc1)C(=O)O` [(S)-2-((S)-2-{(S)-3-(4-Benzoyl-phenyl)-2-[(S)-2-{(S)-3-(4-fluoro-phenyl)-2-[(E)-(3-phenyl-acryloyl)amino]-propionylamino}-3-(4-guanidino-phenyl)-propionylamino]-propionylamino}-5-guanidino-pentanoylamino)-5-propionylamino-pentanoic acid] (X1-[Phe(4-F)][Phe(4-guanidino)][Bpa]R[Orn](Propionyl)-OH) returned an IC50 of 3.1 µM.
Turning to `CCC(=O)NCCC[C@H](NC(=O)[C@H](Cc1ccc(C(=O)c2ccccc2)cc1)NC(=O)[C@H](CC(C)C)NC(=O)[C@H](Cc1ccc(N=C(N)N)cc1)NC(=O)[C@H](Cc1ccc(F)cc1)NC(=O)C=Cc1ccccc1)C(=O)O` [(S)-2-((S)-3-(4-Benzoyl-phenyl)-2-{(S)-2-[(S)-2-{(S)-3-(4-fluoro-phenyl)-2-[(E)-(3-phenyl-acryloyl)amino]-propionylamino}-3-(4-guanidino-phenyl)-propionylamino]-4-methyl-pentanoylamino}-propionylamino)-5-propionylamino-pentanoic acid] (X1-[Phe(4-F)][Phe(4-guanidino)]L[Bpa][Orn](Propionyl)-OH), 9 µM corresponded to half-maximal inhibition (IC50).
Compound `CC(C)C[C@H](NC(=O)[C@H](Cc1ccc(N=C(N)N)cc1)NC(=O)[C@H](Cc1ccc(F)cc1)NC(=O)CCc1ccc(C(=O)c2ccccc2)cc1)C(=O)N[C@@H](CCCNC(=N)N)C(=O)O` [(S)-2-{(S)-2-[(S)-2-[(S)-2-[3-(4-Benzoyl-phenyl)-propionylamino]-3-(4-fluoro-phenyl)-propionylamino]-3-(4-guanidino-phenyl)-propionylamino]-4-methyl-pentanoylamino}-5-guanidino-pentanoic acid] (X4-[Phe(4-F)][Phe(4-guanidino)]LR-OH) displayed an IC50 of 3.1 µM.
`CC(C)C[C@H](NC(=O)[C@H](Cc1ccc(N=C(N)N)cc1)NC(=O)[C@H](Cc1ccc(F)cc1)NC(=O)C=Cc1ccccc1)C(=O)N[C@@H](CCCNC(=N)N)C(=O)O` [(S)-2-{(S)-2-[(S)-2-{(S)-3-(4-Fluoro-phenyl)-2-[(E)-(3-phenyl-acryloyl)amino]-propionylamino}-3-(4-guanidino-phenyl)-propionylamino]-4-methyl-pentanoylamino}-5-guanidino-pentanoic acid] (X1-[Phe(4-F)][Phe(4-guanidino)]LR-OH) gave an IC50 of 0.3 µM. Compared with the last compound, the IC50 is about 10-fold lower.
Take `N=C(N)NCCC[C@H](NC(=O)[C@H](Cc1ccc(C(=O)c2ccccc2)cc1)NC(=O)[C@H](Cc1ccc(N=C(N)N)cc1)NC(=O)[C@H](Cc1ccc(F)cc1)NC(=O)C=Cc1ccccc1)C(=O)O` [(S)-2-{(S)-3-(4-Benzoyl-phenyl)-2-[(S)-2-{(S)-3-(4-fluoro-phenyl)-2-[(E)-(3-phenyl-acryloyl)amino]-propionylamino}-3-(4-guanidino-phenyl)-propionylamino]-propionylamino}-5-guanidino-pentanoic acid] (X1-[Phe(4-F)][Phe(4-guanidino)][Bpa]R-OH): the IC50 was found to be 6 µM.
Compound `CC(C)C[C@H](NC(=O)[C@H](Cc1ccc(N=C(N)N)cc1)NC(=O)[C@H](Cc1ccc(F)cc1)NC(=O)C=Cc1ccccc1)C(=O)N[C@@H](Cc1ccc(C(=O)c2ccccc2)cc1)C(=O)O` [(S)-3-(4-Benzoyl-phenyl)-2-{(S)-2-[(S)-2-{(S)-3-(4-fluoro-phenyl)-2-[(E)-(3-phenyl-acryloyl)amino]-propionylamino}-3-(4-guanidino-phenyl)-propionylamino]-4-methyl-pentanoylamino}-propionic acid] (X1-[Phe(4-F)][Phe(4-guanidino)]L[Bpa]-OH) gave an IC50 of 13 µM.
